# Columns and labels:
# trypanosomes = conditions: Goldberg 1997; cited from earlier work
# [1] = tested on: Candida albicans and various Aspergillus species; conditions: cited from earlier work
# Leishmania promastigotes = conditions: Lawrence 1993, Avila 1993; cited from earlier work
# mammalian cells = conditions: cited from earlier work
# cells = conditions: cited from earlier work
# [2] = target: T1, histidine-tagged TPMT enzyme (Homo sapiens, UniProt P51580); experiment: AdoVin-TNB binding assay, histidine-tagged TPMT isolated using nickel spin column; conditions: XIC (FIG. 30 top panel)
# T1 construct: made in house
# T1 sequence (P51580 1-245): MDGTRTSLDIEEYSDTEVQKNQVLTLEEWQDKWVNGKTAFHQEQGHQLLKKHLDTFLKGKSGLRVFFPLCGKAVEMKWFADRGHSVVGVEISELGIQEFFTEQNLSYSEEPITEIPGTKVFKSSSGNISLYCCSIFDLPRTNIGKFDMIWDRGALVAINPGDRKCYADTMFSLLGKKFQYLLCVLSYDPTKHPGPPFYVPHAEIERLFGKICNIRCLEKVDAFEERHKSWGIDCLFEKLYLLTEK
# Method: The histidine-tagged TPMT enzyme was isolated using nickel spin column. 610.0 m/z at 8.6 min is for the TNB-AdoVin adduct (confirmed by tandem mass analysis), 411.0 m/z at 1.6 min is for AdoVin, and 162.0 m/z at 6.2 min is for vinthionine. […] The peak around 1.58 minutes with m/z 411.0 corresponds to AdoVin, while the peak around 6.2 min with m/z 162.0 corresponds to vinthionine.
# Recombinant histidine-tagged human thiopurine methyltransferase (TPMT, EC 2.1.1.67) and S-adenosylhomocysteine nucleosidase (MTAN, EC 3.2.2.9) were purified as described. See Cannon, L. M. et al. Anal. Biochem. 2002, 308, 35/-363; Lee, J. E. et al. Acta Crystallogr. D. Biol. Crystallogr. 2001, 57, 150-152. The recombinant E. coli homocysteine S-methyltransferase (HMT, EC 2.1.1.10) was a gift from Steven G Clark (UCLA Department of Chemistry and Biochemistry, Los Angeles, Calif.), and purified as described. See Vinci, C. R.; Clarke, S. G. J. Biol. Chem. 2010, 285(27), 20526-20531; Vinci, C. R.; Clarke, S. G. J. Biol. Chem. 2007, 282(12), 8604-8612.
# TPMT [3] = target: T2, TPMT (Homo sapiens, UniProt P51580); conditions: data referred to for comparison; cited from earlier work
# T2 construct: made in house
# T2 sequence (P51580 1-245): T1 sequence (P51580 1-245)
# TPMT [4] = target: T2, TPMT; experiment: specificity assay with AdoVin (time-dependent UV absorbance change); assay type: biochemical; conditions: FIG. 34
# Text: In comparison, the concentration of 4-methoxybenzylthiol decreased in the presence of AdoVin, indicating a reaction with AdoVin.
# [5] = target: T3, human betaine-homocysteine S-methyltransferase (Homo sapiens, UniProt Q93088); conditions: cited from earlier work
# T3 sequence (Q93088 1-406): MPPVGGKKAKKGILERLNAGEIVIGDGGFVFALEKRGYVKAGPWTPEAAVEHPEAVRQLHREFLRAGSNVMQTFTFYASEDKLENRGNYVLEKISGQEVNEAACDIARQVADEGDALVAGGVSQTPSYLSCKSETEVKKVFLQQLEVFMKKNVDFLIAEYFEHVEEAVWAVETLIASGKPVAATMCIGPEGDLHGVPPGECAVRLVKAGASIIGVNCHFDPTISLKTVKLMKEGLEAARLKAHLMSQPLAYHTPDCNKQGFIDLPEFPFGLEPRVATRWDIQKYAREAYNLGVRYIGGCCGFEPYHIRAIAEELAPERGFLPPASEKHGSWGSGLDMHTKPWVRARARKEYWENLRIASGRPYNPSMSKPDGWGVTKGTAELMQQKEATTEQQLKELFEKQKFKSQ
smiles,measurement,setting,value
"C[S+](CC[C@H](N)C(=O)[O-])C[C@H]1O[C@@H](n2cnc3c(N)ncnc32)[C@H](O)[C@@H]1O (stereo partly drawn) [AdoMet, S-Adenosyl-methionine]",active transport into trypanosomes,trypanosomes,actively transported
same,active transport into Candida albicans and various Aspergillus species,[1],actively transported
same,active transport into Leishmania promastigotes,Leishmania promastigotes,actively transported
same,active transport into mammalian cells,mammalian cells,not actively transported
"C=CSCC[C@H](N)C(=O)O [vinthionine, S-Demethyl-5-vinyl-L-methionine]",cell permeability,cells,cell permeable
same,presence in the enzyme complex,[2],absence
O=[N+]([O-])c1ccc(O)cc1 [4-nitrophenol],reaction with AdoMet (the natural substrate for TPMT),TPMT [3],does not react
same,time-dependent UV absorbance / concentration change in the presence of AdoVin,TPMT [4],No change was observed
C=CSCCC(N)C(=O)O (racemic) [DL-S-Vinylhomocysteine],inhibition of human betaine-homocysteine S-methyltransferase,[5],not to be an inhibitor
COc1ccc(CS)cc1 [4-methoxybenzylthiol],reaction with AdoMet (the natural substrate for TPMT),TPMT [3],reacts
same,time-dependent UV absorbance / concentration change in the presence of AdoVin,TPMT [4],decreased
C=CSCC[C@H](N)C(=O)O [L-S-Vinylhomocysteine],active transport into cells,cells,actively transported into cells

# From patent US20150057243A1, “Compositions and Methods for the Inhibition of Methyltransferases” (Northeastern University, priority 2012, published 2015)
